Data from US9890133B2 (priority 2011, dated 2018).
≈ marks a conversion by molar mass, not a printed value.

Assay: in vitro
Conditions: human

Structure (SMILES) | CC50 | CC50 (Picorana CC50)
CC(C)c1ccc2c(c1)OC1(O)c3cccc(N)c3C(=O)C21NC(=O)Cc1ccc(-c2ccccc2)cc1 (centres unmarked) [Example 182, 2-([1,1′-Biphenyl]-4-yl)-N-(1-amino-4b-hydroxy-7-isopropyl-10-oxo-9b,10-dihydro-4bH-indeno[1,2-b]benzofuran-9b-yl)acetamide] | 5.85 µg/mL (≈ 11.6 µM) | 6.42 µg/mL (≈ 12.7 µM)
CC(C)NC(=O)NC12C(=O)c3c([N+](=O)[O-])cccc3C1(O)Oc1cc(C(C)C)ccc12 (centres unmarked) [Example 76, 1-(4b-Hydroxy-7-isopropyl-1-nitro-10-oxo-4b,10-dihydro-5-oxa-indeno[2,1-a]inden-9b-yl)-3-isopropyl-urea] | – | > 50 µg/mL
CC(C)c1ccc2c(c1)OC1(O)c3ccccc3C(=O)C21NC(=O)c1ccc(=O)oc1 (centres unmarked) [Example 226, N-(4b-Hydroxy-7-isopropyl-10-oxo-9b,10-dihydro-4bH-benzo[d]indeno[1,2-b]furan-9b-yl)-2-oxo-2H-pyrane-5-carboxamide] | > 10 µg/mL | 28.2 µg/mL (≈ 67.5 µM)
CC(C)c1ccc2c(c1)OC1(O)c3ccccc3C(=O)C21NC(=O)c1cccnc1 (centres unmarked) [Example 230, N-(4b-Hydroxy-7-isopropyl-10-oxo-9b,10-dihydro-4bH-indeno[1,2-b]benzofuran-9b-yl)nicotinamide] | > 10 µg/mL | 42.8 µg/mL (≈ 107 µM)
CCCCCC(=O)NC12C(=O)c3c(N)cccc3C1(OC(=O)CCCCC)Oc1cc(C(C)C)ccc12 (centres unmarked) [Example 97, 1-amino-9b-hexanamido-7-isopropyl-10-oxo-9b,10-dihydro-4bH-benzo[d]indeno[1,2-b]furan-4b-yl hexanoate] | 8.8 µg/mL (≈ 17.4 µM) | > 50 µg/mL
Cc1ccn2cc(C(=O)NC34C(=O)c5c(N)cccc5C3(O)Oc3cc(C(C)C)ccc34)nc2c1 (centres unmarked) [Example 280, N-(1-Amino-4b-hydroxy-7-isopropyl-10-oxo-9b,10-dihydro-4bH-indeno[1,2-b]benzofuran-9b-yl)-7-methylimidazo[1,2-a]pyridine-2-carboxamide] | > 10 µg/mL | –
CC(C)c1ccc2c(c1)OC1(O)c3ccc(N4CCCCC4)cc3C(=O)C21O (centres unmarked) [Example 139, 4b,9b-Dihydroxy-7-isopropyl-2-piperidinyl-4bH-benzo[d]indeno[1,2-b]furan-10(9bH)-one] | – | 0.45 µg/mL (≈ 1.19 µM)
CC(=O)N1c2ccccc2C2(N)C(=O)c3ccccc3C12O (centres unmarked) [Example 108, 5-Acetyl-9b-amino-4b-hydroxy-5,9b-dihydro-4bH-indeno[1,2-b]indol-10-one] | – | 1.81 µg/mL (≈ 6.15 µM)
CC(C)c1ccc2c(c1)OC1(O)c3ccccc3C(=O)C21NC(=O)c1cc(=O)[nH]c(=O)[nH]1 (centres unmarked) [Example 224, N-(4b-Hydroxy-7-isopropyl-10-oxo-9b,10-dihydro-4bH-benzo[d]indeno[1,2-b]furan-9b-yl)-2,6-dioxo-1,2,3,6-tetrahydropyrimidine-4-carboxamide] | > 10 µg/mL | > 50 µg/mL
CC(C)C(=O)NC12Oc3cc(C(C)C)ccc3C1(NC(=O)C(C)C)C(=O)c1ccccc12 (centres unmarked) [Example 125] | – | 45.5 µg/mL (≈ 105 µM)
CC(C)c1ccc2c(c1)OC1(O)c3cccc(N)c3C(=O)C21NC(=O)CCl (centres unmarked) [Example 194, N-(1-Amino-4b-hydroxy-7-isopropyl-10-oxo-9b,10-dihydro-4bH-benzo[d]indeno[1,2-b]furan-9b-yl)-2-chloroacetamide] | > 10 µg/mL | –
CC(C)c1ccc2c(c1)OC1(O)c3ccccc3C(=O)C21NC(=O)c1cc2ccccc2[nH]1 (centres unmarked) [Example 208, N-(4b-hydroxy-7-isopropyl-10-oxo-9b,10-dihydro-4bH-indeno[1,2-b]benzofuran-9b-yl)-1H-indole-2-carboxamide] | > 10 µg/mL | –
CC(C)c1cc(C(C)C)c2c(c1)C1(O)C(=O)c3ccccc3C1(O)O2 (centres unmarked) [Example 64, 4b,9b-Dihydroxy-6,8-diisopropyl-4b,9b-dihydro-5-oxa-indeno[2,1-a]inden-10-one] | – | 8.13 µg/mL (≈ 24 µM)
CC(C)c1ccc2c(c1)OC1(O)c3cccc(N4CCOCC4)c3C(=O)C21O (centres unmarked) [Example 142, 4b,9b-Dihydroxy-7-isopropyl-1-morpholinyl-4bH-benzo[d]indeno[1,2-b]furan-10(9bH)-one] | – | 18.7 µg/mL (≈ 49 µM)
COc1ccc(CN2CCN(c3ccc4c(c3)C(=O)C3(O)c5ccc(C(C)C)cc5OC43O)CC2)cc1 (centres unmarked) [Example 148, 4b,9b-Dihydroxy-7-isopropyl-2-(4-(4-methoxybenzyl)piperazin-1-yl)-4bH-benzo[d]indeno[1,2-b]furan-10(9bH)-one] | – | 1.72 µg/mL (≈ 3.44 µM)
CC(C)c1ccc2c(c1)OC1(O)c3ccccc3C(=O)C21NC(=O)[C@@H](C)NC(=O)OC(C)(C)C (stereo partly drawn) [Example 184, tert-Butyl(2R)-1-(4b-hydroxy-7-isopropyl-10-oxo-9b,10-dihydro-4bH-benzo[d]indeno[1,2-b]furan-9b-ylamino)-1-oxopropan-2-ylcarbamate] | > 10 µg/mL | 36.4 µg/mL (≈ 78 µM)
CCCCNC(=O)NC12C(=O)c3c(N)cccc3C1(O)Oc1cc(C(C)C)ccc12 (centres unmarked) [Example 163, 1-(1-Amino-4b-hydroxy-7-isopropyl-10-oxo-9b,10-dihydro-4bH-indeno[1,2-b]benzofuran-9b-yl)-3-butylurea] | > 10 µg/mL | –
CCCC(=O)N[C@@]12C(=O)c3c(N)cccc3[C@]1(OC(=O)CCC)Oc1cc(C(C)C)ccc12 [Example 95, (4bR,9bS)-1-Amino-9b-butyramido-7-isopropyl-10-oxo-9b,10-dihydro-4bH-indeno[1,2-b]benzofuran-4b-yl butyrate] | 26 µg/mL (≈ 57.7 µM) | 38.1 µg/mL (≈ 84.5 µM)
CCCCc1cn(C23C(=O)c4c(N)cccc4C2(O)Oc2cc(C(C)C)ccc23)nn1 (centres unmarked) [Example 196, 1-amino-9b-(4-butyl-1H-1,2,3-triazol-1-yl)-4b-hydroxy-7-isopropyl-4bH-indeno[1,2-b]benzofuran-10(9bH)-one] | 16.2 µg/mL (≈ 38.7 µM) | 48.5 µg/mL (≈ 116 µM)
CCCC(=O)NC12C(=O)c3ccccc3C1(OC(=O)CCC)Oc1cc(C(C)C)ccc12 (centres unmarked) [Example 89, Butyric acid 9b-butyrylamino-7-isopropyl-10-oxo-9b,10-dihydro-5-oxa-indeno[2,1-a]inden-4b-yl ester] | – | > 50 µg/mL
COc1c(C(=O)NC23C(=O)c4c(N)cccc4C2(O)Oc2cc(C(C)C)ccc23)cnc2ccc(F)cc12 (centres unmarked) [Example 267, N-(1-Amino-4b-hydroxy-7-isopropyl-10-oxo-9b,10-dihydro-4bH-indeno[1,2-b]benzofuran-9b-yl)-6-fluoro-4-methoxyquinoline-3-carboxamide] | 0.86 µg/mL (≈ 1.67 µM) | 0.87 µg/mL (≈ 1.69 µM)
CCCCCCCC(=O)N[C@@]12C(=O)c3c(N)cccc3[C@]1(O)Oc1cc(C(C)C)ccc12 [Example 93, N-((4bS,9bS)-1-Amino-4b-hydroxy-7-isopropyl-10-oxo-9b,10-dihydro-4bH-indeno[1,2-b]benzofuran-9b-yl)octanamide] | 6.23 µg/mL (≈ 14.3 µM) | 8.49 µg/mL (≈ 19.4 µM)
CO/N=C1/c2ccccc2C2(NOC)Oc3cc(C(C)C)ccc3C12O (centres unmarked) [Example 128, 9b-Hydroxy-7-isopropyl-4b-(methoxyamino)-4bH-indeno[1,2-b]benzofuran-10(9bH)-one O-methyl oxime] | – | 37.3 µg/mL (≈ 105 µM)
CCNc1cccc2c1C(=O)C1(O)c3ccc(C(C)C)cc3OC21O (centres unmarked) [Example 133, 1-(Ethylamino)-4b,9b-dihydroxy-7-isopropyl-4bH-indeno[1,2-b]benzofuran-10(9bH)-one] | – | 1.58 µg/mL (≈ 4.66 µM)
CCOC(=O)OC12Oc3cc(C(C)C)ccc3C1(NC(C)=O)C(=O)c1ccccc12 (centres unmarked) [Example 116, 9b-Acetamido-7-isopropyl-10-oxo-9b,10-dihydro-4bH-benzo[d]indeno[1,2-b]furan-4b-yl ethyl carbonate] | – | 41.7 µg/mL (≈ 102 µM)
